Assay results published in patent publication US9926602B2, “Recurrent gene fusions in prostate cancer” (THE REGENTS OF THE UNIVERSITY OF MICHIGAN, priority 2009, dated 2018).

Test system: UBE2L3-KRAS fusion protein
Test: Western blot of UBE2L3-KRAS fusion protein with or without bortezomib
Type: cell-based, human
Experimental: The prostate cancer cell lines DU145 were transfected with siRNA duplex (Dharmacon, Lafayette, Colo., USA) against UBE2L3 (5′-CCACCGAAGATCACATTTA-3′; SEQ ID NO:1), KRAS (5′-GAAGTTATGGAATTCCTTT-3′; SEQ ID NO:2) or the fusion junction (5′-CCGACCAAGGCCTGCTGAA-3′; SEQ ID NO:3) by oligofectamine (Invitrogen). DU145 transfected with non-targeting siRNA and RWPE cells was used as negative control. Post 48 hours transfection, cells were homogenized in NP40 lysis buffer (50 mM Tris-HCl, 1% NP40, pH 7.4, Sigma, St. Louis, Mo.), and complete proteinase inhibitor mixture (Roche, Indianapolis, Ind.). Ten micrograms of each protein extract were boiled in sample buffer, separated by SDS-PAGE, and transferred onto Polyvinylidene Difluoride membrane (GE Healthcare, Piscataway, N.J.). The membrane was incubated for one hour in blocking buffer [Tris-buffered saline, 0.1% Tween (TBS-T), 5% nonfat dry milk] and incubated overnight at 4° C. with the following antibodies: anti-RAS mouse monoclonal (1:1000 in blocking buffer, Millipore Cat #: 05-516), anti-KRAS rabbit polyclonal (1:1000, Proteintech Group Inc., Cat #: 12063-1-AP) and anti-beta Actin mouse monoclonal (1:5000, Sigma Cat #: A5441) antibodies. Following three washes with TBS-T, the blot was incubated with horseradish peroxidase-conjugated secondary antibody and the signals visualized by enhanced chemiluminescence system as described by the manufacturer (GE Healthcare). To test fusion protein expression in multiple prostate derived cell lines, lysates from DU145, PrEC, RWPE, 22RV1, VCaP, PC3 either untreated or treated with 500 nM bortezomib for 12 hours were used. Bortezomib treated HEK cells over-expressing UBE2L3-KRAS fusion protein was used as a positive control. […] For ERK activation analysis NIH 3T3 cells were starved for 12 hours before immunoblot analysis using phospho erk1/2 antibody. All antibodies for the MAPK signaling proteins were purchased from Cell Signaling Technologies.

CC(C)C[C@H](NC(=O)[C@H](Cc1ccccc1)NC(=O)c1cnccn1)B(O)O [bortezomib]
levels of UBE2L3-KRAS protein expression (DU145 cells incubated with bortezomib): enhanced | expression of the UBE2L3-KRAS fusion protein (HEK293 cells over-expressing UBE2L3-KRAS construct, in the presence of bortezomib): clearly apparent | expression of the UBE2L3-KRAS fusion protein (RWPE cells overexpressing UBE2L3-KRAS): required
